Experimental data as given in US20140024674A1, “TRPM5 INHIBITORS SUPPORT BODY WEIGHT REDUCTION WITHOUT REDUCING FOOD INTAKE” (NESTEC S.A., priority 2011, published 2014).
Entries after “also recorded” stand apart in the source; their conditions may differ.

Experiments:
[1] = Quinine-supplemented diet in wild type mice over 12 weeks: body weight, body composition (NMR), food intake; type: in vivo; details: for mean fat mass at the end of the trial: control 7.65 g±0.47
Protocol: Body composition was determined on […] mice by nuclear magnetic resonance (NMR) using an EchoMRI-900 Body Composition Analyzer (Echo Medical System, LLC, Houston, Tex., USA).
Three groups of wild type male C57BL6 mice 3 months old, 20 mice per group, were fed either a semi-synthetic (AlN) diet, or AlN diet with 0.1% quinine, or AlN diet with 0.01% quinine.
Body weight was measured weekly, body composition was measured monthly, food and fluid intake were measured twice a week over a period of 12 weeks.

[2] = molecular target: T1, Trpm5 (Mus musculus, UniProt Q9JJH7); details: Talayera et al, 2008, FASEB J.; cited from earlier work
T1 sequence (Q9JJH7 1-1158): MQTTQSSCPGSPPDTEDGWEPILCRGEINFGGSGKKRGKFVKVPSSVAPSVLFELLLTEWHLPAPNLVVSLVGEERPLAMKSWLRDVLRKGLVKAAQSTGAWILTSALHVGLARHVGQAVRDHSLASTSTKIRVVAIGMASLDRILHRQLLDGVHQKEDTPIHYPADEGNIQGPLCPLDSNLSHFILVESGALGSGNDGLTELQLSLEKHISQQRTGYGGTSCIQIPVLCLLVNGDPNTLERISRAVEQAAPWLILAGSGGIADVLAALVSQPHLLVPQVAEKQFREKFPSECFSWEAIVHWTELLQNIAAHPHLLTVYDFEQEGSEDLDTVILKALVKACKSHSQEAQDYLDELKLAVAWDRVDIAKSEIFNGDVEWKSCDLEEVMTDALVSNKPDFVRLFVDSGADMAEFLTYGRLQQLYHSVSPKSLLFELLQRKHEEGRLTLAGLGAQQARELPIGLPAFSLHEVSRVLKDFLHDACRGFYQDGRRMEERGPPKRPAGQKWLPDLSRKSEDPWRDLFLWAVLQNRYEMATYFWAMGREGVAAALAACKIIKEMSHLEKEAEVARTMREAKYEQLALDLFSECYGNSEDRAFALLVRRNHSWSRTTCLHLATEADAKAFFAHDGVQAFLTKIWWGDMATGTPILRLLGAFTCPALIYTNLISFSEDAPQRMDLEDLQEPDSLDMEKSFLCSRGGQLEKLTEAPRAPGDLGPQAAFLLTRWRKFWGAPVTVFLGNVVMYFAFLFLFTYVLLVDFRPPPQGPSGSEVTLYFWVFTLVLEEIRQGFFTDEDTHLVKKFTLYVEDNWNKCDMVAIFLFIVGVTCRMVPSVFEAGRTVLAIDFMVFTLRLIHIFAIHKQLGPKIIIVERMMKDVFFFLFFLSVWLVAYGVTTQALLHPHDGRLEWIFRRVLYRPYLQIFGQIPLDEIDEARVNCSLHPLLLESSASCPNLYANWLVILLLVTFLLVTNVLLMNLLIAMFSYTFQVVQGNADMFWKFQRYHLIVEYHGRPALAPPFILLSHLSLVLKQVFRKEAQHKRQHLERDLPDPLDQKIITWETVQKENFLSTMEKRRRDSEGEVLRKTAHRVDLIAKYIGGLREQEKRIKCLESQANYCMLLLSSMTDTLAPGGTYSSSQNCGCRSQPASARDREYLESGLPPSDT

## C=C[C@H]1CN2CC[C@H]1C[C@H]2[C@H](O)c1ccnc2ccc(OC)cc12 [quinine, (R)-(6-methoxyquinolin-4-yl)((2S,4S,8R)-8-vinylquinuclidin-2-yl)methanol]
[1]; wild type male C57BL6 mice, AlN diet with 0.01% quinine, 12 weeks, NMR
  mean fat mass at the end of the trial: 7.9675 g
[1]; wild type male C57BL6 mice, AlN diet with 0.01% quinine, 12 weeks, vs control diet
  Body weight gain: not different from control
[1]; wild type male C57BL6 mice, AlN diet with 0.1% quinine, 12 weeks, NMR, p<0.01 compared to control
  mean fat mass at the end of the trial: 5.524 g
[1]; wild type male C57BL6 mice, AlN diet with 0.1% quinine, 12 weeks, vs control diet (p<0.01)
  Body weight gain: gained less weight; also recorded: significantly lower
[1]; wild type male C57BL6 mice, diet with 0.1% or 0.01% quinine vs control diet, 12 weeks, NMR
  lean mass: no difference between groups
[1]; wild type male C57BL6 mice, diet with 0.1% or 0.01% quinine vs control diet, over 12 weeks
  Total food intake: food intake was not different between the groups; also recorded: no difference in food intake between groups
[1]; wild type mice, 0.1% quinine supplemented diet, 12 weeks
  fat mass gain vs control diet: gained less weight and fat mass
[2]
  inhibition of Trpm5: inhibitor of Trpm5
